These results are taken from patent publication US20110190263A1, “COMPOUNDS AND COMPOSITIONS AS MODULATORS OF GPR119 ACTIVITY” (IRM LLC, priority 2008, published 2011).

The structures appear in SMILES notation.

In the assay the target is T1, human GPR119 (Homo sapiens, UniProt Q8TDV5).
T1 construct: expressed in transfected cells
T1 sequence (Q8TDV5 1-335): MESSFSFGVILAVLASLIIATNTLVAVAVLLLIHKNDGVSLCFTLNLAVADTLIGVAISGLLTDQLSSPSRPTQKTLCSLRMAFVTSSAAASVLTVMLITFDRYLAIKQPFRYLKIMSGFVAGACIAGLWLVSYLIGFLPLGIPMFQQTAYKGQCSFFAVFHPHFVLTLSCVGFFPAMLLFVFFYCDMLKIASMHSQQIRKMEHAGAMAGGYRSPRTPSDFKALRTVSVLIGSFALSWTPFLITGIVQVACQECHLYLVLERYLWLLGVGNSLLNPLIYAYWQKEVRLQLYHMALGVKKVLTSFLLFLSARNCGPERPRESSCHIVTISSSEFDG
Put plainly: Cyclic AMP assay in stable cell line (Flp-In-CHO-hGPR119, HTRF). The conditions noted are these: Flp-In-CHO-hGPR119 cells, intracellular cAMP by HTRF, 1 mM IBMX, 37° C. for 30 minutes. The assay is classed as cell-based. As for the experimental part: Flp-In-CHO cells (Invitrogen, Cat.# R758-07) are maintained in Ham's F12 medium supplemented with 10% fetal bovine serum, 1% antibiotic mixture and 2 mM L-glutamine. The cells are transfected with a DNA mixture containing human GPR119 in pcDNA5/FRT vector and the pOG44 vector (1:9) using Fugene6 (Roche), according to the manufacturer's instruction. After 48 hours, the medium is changed to medium supplemented with 400 μg/ml hygromycin B to initiate the selection of stably transfected cells.
To test the activity of compounds of the invention, Flp-In-CHO-hGPR119 cells are harvested and resuspended in DMEM plus 3% lipid-depleted fetal bovine serum. Forth μl of cells are plated in 384 well plates at a density of 15,000 cells/well. IBMX (3-isobutyl-1-methyl-xanthine) is added to the cells to a final concentration of 1 mM, followed by the addition of 500 nl of the compound to be tested. The cells are incubated at 37° C. for 30 minutes. Equal volume (20 μl) of the HTRF reagents, anti-cAMP-Cryptate and cAMP-XL665, are added to the cells. The plates are incubated at room temperature for 1 hour and read on a HTRF reader according to the manufacturer's instruction.
As for `CC1(OC(=O)N2CCC(CCCOc3ncc4c(n3)CCN(S(C)(=O)=O)C4)CC2)CC1` [Example D2, 1-Methylcyclopropyl 4-(3-(6-(methylsulfonyl)-5,6,7,8-tetrahydropyrido[4,3-d]pyrimidin-2-yloxy)propyl)piperidine-1-carboxylate], it took 2 nM to reach a half-maximal effect (EC50).
With `CCc1cnc(N2CCC(OCCOc3ncc4c(n3)CCN(S(C)(=O)=O)C4)CC2)nc1` [Example E1, 2-(2-(1-(5-ethylpyrimidin-2-yl)piperidin-4-yloxy)ethoxy)-6-(methylsulfonyl)-5,6,7,8-tetrahydropyrido[4,3-d]pyrimidine], a half-maximal response (EC50) required 212 nM.
Next, `CCc1cnc(N2CCC(CCCNc3ncc4c(n3)CCN(S(C)(=O)=O)C4)CC2)nc1` [Example D5, N-(3-(1-(5-Ethylpyrimidin-2-yl)piperidin-4-yl)propyl)-6-(methylsulfonyl)-5,6,7,8-tetrahydropyrido[4,3-d]pyrimidin-2-amine]: 7 nM; `CC1(OC(=O)N2CCC(CCCNc3ncc4c(n3)CCN(S(C)(=O)=O)C4)CC2)CC1` [Example D7, 1-methylcyclopropyl 4-(3-(6-(methylsulfonyl)-5,6,7,8-tetrahydropyrido[4,3-d]pyrimidin-2-ylamino)propyl)piperidine-1-carboxylate]: 8 nM.
The result for `CC1(OC(=O)N2CCC(COC3CN(c4ncc5c(n4)CCN(S(C)(=O)=O)C5)C3)CC2)CC1` [Example G6] reads 28 nM.
Turning to `CCc1cnc(N2CCC(C(C)OC3CN(c4ncc5c(n4)CCN(S(C)(=O)=O)C5)C3)CC2)nc1` (racemic) [Example H1, (±)-2-(3-(1-(1-(5-Ethylpyrimidin-2-yl)piperidin-4-yl)ethoxy)azetidin-1-yl)-6-(methylsulfonyl)-5,6,7,8-tetrahydropyrido[4,3-d]pyrimidine], a half-maximal response (EC50) required 183 nM.
Next, `CS(=O)(=O)N1CCc2nc(OCCCc3ccc(-n4cccn4)nc3)ncc2C1` [Example G16, 5-[3-({6-methanesulfonyl-5H,6H,7H,8H-pyrido[4,3-d]pyrimidin-2-yl}oxy)propyl]-2-(1H-pyrazol-1-yl)pyridine]: 1020 nM; `C[C@H]1CN(C(=O)OC2(C)CC2)CC[C@H]1COC1CN(c2ncc3c(n2)CCN(S(C)(=O)=O)C3)C1` [Example J2, 1-methylcyclopropyl(3R,4R)-4-{[(1-{6-methanesulfonyl-5H,6H,7H,8H-pyrido[4,3-d]pyrimidin-2-yl}azetidin-3-yl)oxy]methyl}-3-methylpiperidine-1-carboxylate]: 174 nM; `CC(C)OC(=O)N1CCC(CCCCOC2=NCCC3CN(S(C)(=O)=O)CCC23)CC1` (centres unmarked) [Example A8, isopropyl 4-(4-(6-(methylsulfonyl)-3,4,4a,5,6,7,8,8a-octahydro-2,6-naphthyridin-1-yloxy)butyl)piperidine-1-carboxylate]: 137 nM.
Next, `CCc1cnc(N2CCC(CCCOc3ncc4c(n3)CCN(S(C)(=O)=O)C4)CC2)nc1` [Example D3, 2-(3-(1-(5-Ethylpyrimidin-2-yl)piperidin-4-yl)propoxy)-6-(methylsulfonyl)-5,6,7,8-tetrahydropyrido[4,3-d]pyrimidine]: 4 nM.
As to `CC(C)c1noc(N2CCC(COC3CN(c4ncc5c(n4)CCN(S(C)(=O)=O)C5)C3)CC2)n1` [Example G11], the response was half-maximal at 170 nM (EC50).
In the case of `CC1(OC(=O)N2CCC(CCOCc3ncc4c(n3)CCN(S(C)(=O)=O)C4)CC2)CC1` [Example C1, 1-Methylcyclopropyl 4-(2-((6-(methylsulfonyl)-5,6,7,8-tetrahydropyrido[4,3-d]pyrimidin-2-yl)methoxy)ethyl)piperidine-1-carboxylate], the EC50 worked out at 514 nM.
The result for `CCc1cnc(N2CCc3c(cccc3OC3CN(c4ncc5c(n4)CCN(S(C)(=O)=O)C5)C3)C2)nc1` [Example I1, 2-(3-(2-(5-Ethylpyrimidin-2-yl)-1,2,3,4-tetrahydroisoquinolin-5-yloxy)azetidin-1-yl)-6-(methylsulfonyl)-5,6,7,8-tetrahydropyrido[4,3-d]pyrimidine] reads 49 nM.
On to `CC(C)c1noc(N2CCC(CCCNc3ncc4c(n3)CCN(S(C)(=O)=O)C4)CC2)n1` [Example D4, N-(3-(1-(3-isopropyl-1,2,4-oxadiazol-5-yl)piperidin-4-yl)propyl)-6-(methylsulfonyl)-5,6,7,8-tetrahydropyrido[4,3-d]pyrimidin-2-amine], for which the EC50 worked out at 6 nM.
`CC(C)OC(=O)N1CCC(CCCCn2ccc3c(c2=O)CCN(S(C)(=O)=O)C3)CC1` [Example A7, isopropyl 4-(4-(6-(methylsulfonyl)-1-oxo-5,6,7,8-tetrahydro-2,6-naphthyridin-2(1H)-yl)butyl)piperidine-1-carboxylate] returned an EC50 of 94 nM.
Next, `CO[C@H]1CN(C(=O)OC2(C)CC2)CC[C@H]1COC1CN(c2ncc3c(n2)CCN(S(C)(=O)=O)C3)C1` (racemic) [Example J1, (±)-(3R,45)-1-Methylcyclopropyl 3-methoxy-4-((1-(6-(methylsulfonyl)-5,6,7,8-tetrahydropyrido[4,3-d]pyrimidin-2-yl)azetidin-3-yloxy)methyl)piperidine-1-carboxylate]: 711 nM; `CCc1cnc(N2CCC(CCCOc3ccc4c(n3)CCN(S(C)(=O)=O)C4)CC2)nc1` [Example F1, 2-(3-(1-(5-Ethylpyrimidin-2-yl)piperidin-4-yl)propoxy)-6-(methylsulfonyl)-5,6,7,8-tetrahydro-1,6-naphthyridine]: 27 nM.
Take `CC(C)(C)OC(=O)N1CC(OCC2CCN(c3ncc4c(n3)CCN(S(C)(=O)=O)C4)CC2)C1` [Example G7]: the EC50 was determined as 22 nM.
The result for `CC1(OC(=O)N2CCC(Cc3cn(-c4ncc5c(n4)CCN(S(C)(=O)=O)C5)cn3)CC2)CC1` [Example G18, 1-methylcyclopropyl 4-[(1-{6-methanesulfonyl-5H,6H,7H,8H-pyrido[4,3-d]pyrimidin-2-yl}-1H-imidazol-4-yl)methyl]piperidine-1-carboxylate] reads 122 nM; that for `CCc1cnc(N2CCC(COCC3CN(c4ncc5c(n4)CCN(S(C)(=O)=O)C5)C3)CC2)nc1` [Example G5], 666 nM; that for `CCc1cnc(-c2ccc(CCCOc3ncc4c(n3)CCN(S(C)(=O)=O)C4)cc2)nc1` [Example G15, 5-ethyl-2-{4-[3-({6-methanesulfonyl-5H,6H,7H,8H-pyrido[4,3-d]pyrimidin-2-yl}oxy)propyl]phenyl}pyrimidine], 366 nM.
`CC(C)OC(=O)N1CCC(Oc2nccc3c2CCN(S(C)(=O)=O)C3)CC1` [Example A4, isopropyl 4-(6-(methylsulfonyl)-5,6,7,8-tetrahydro-2,6-naphthyridin-1-yloxy)piperidine-1-carboxylate] gave an EC50 of 3710 nM.
`CC(C)OC(=O)N1CCC(N2CCC3CN(S(C)(=O)=O)CCC3C2=O)CC1` (centres unmarked) [Example A5, isopropyl 4-(6-(methylsulfonyl)-1-oxooctahydro-2,6-naphthyridin-2(1H)-yl)piperidine-1-carboxylate] came in with an EC50 of 4360 nM.
Next, `CCc1cnc(N2CCC(COC3CN(c4ncc5c(n4)CCN(S(C)(=O)=O)C5)C3)CC2)nc1` [Example G1, 2-(3-((1-(5-Ethylpyrimidin-2-yl)piperidin-4-yl)methoxy)azetidin-1-yl)-6-(methylsulfonyl)-5,6,7,8-tetrahydropyrido[4,3-d]pyrimidine]: 9 nM.
The result for `CS(=O)(=O)N1CCc2nc(CNCCc3cccc(Br)c3)ncc2C1` [Example B3, 2-(3-bromophenyl)-N-((6-(methylsulfonyl)-5,6,7,8-tetrahydropyrido[4,3-d]pyrimidin-2-yl)methyl)ethanamine] reads 2440 nM.
For `CCc1cnc(N2CCC(COC3CCN(c4ncc5c(n4)CCN(S(C)(=O)=O)C5)CC3)CC2)nc1` [Example G9], the EC50 was 317 nM.
The result for `CC(C)OC(=O)N1CCC(CCCCOc2nccc3c2CCN(S(C)(=O)=O)C3)CC1` [Example A9, isopropyl 4-(4-(6-(methylsulfonyl)-5,6,7,8-tetrahydro-2,6-naphthyridin-1-yloxy)butyl)piperidine-1-carboxylate] reads 191 nM; that for `CN(CCCC1CCN(C(=O)OC2(C)CC2)CC1)c1ncc2c(n1)CCN(S(C)(=O)=O)C2` [Example D8, 1-methylcyclopropyl 4-(3-(methyl(6-(methylsulfonyl)-5,6,7,8-tetrahydropyrido[4,3-d]pyrimidin-2-yl)amino)propyl)piperidine-1-carboxylate], 10 nM.
The result for `CCc1cnc(N2CCC(CCCOc3ncc4c(n3)CCN(S(=O)(=O)CCCO)C4)CC2)nc1` [Example D9, 3-(2-{3-[1-(5-ethylpyrimidin-2-yl)piperidin-4-yl]propoxy}-5H,6H,7H,8H-pyrido[4,3-d]pyrimidine-6-sulfonyl)propan-1-ol] reads 5 nM.
